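48-hour exposure; five concentrations; linearly interpolated endpoints. At the GI50, growth is halved. At the TGI there is no net growth.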
Columns and labels:
Test in all cases: DTP human tumour cell line panel, 48 h; in the data active means GI50 below about 0.43 µM; inactive means the rest
[1] = test system: UACC-62 melanoma
[2] = test system: MALME-3M melanoma
[3] = test system: K-562 leukemia
[4] = test system: OVCAR-3 ovarian
[5] = test system: HT29 colon
[6] = test system: DU-145 prostate
[7] = test system: SK-MEL-2 melanoma
[8] = test system: NCI-H23 lung
[9] = test system: MCF7 breast
[10] = test system: RPMI-8226 leukemia
[11] = test system: RXF 393 renal
[12] = test system: BT-549 breast
[13] = test system: A549 NSCLC
[14] = test system: SK-OV-3 ovarian
[15] = test system: MDA-MB-231 breast
[16] = test system: NCI-H226 lung
[17] = test system: COLO 205 colon
[18] = test system: NCI-H522 lung
[19] = test system: LOX IMVI melanoma
[20] = test system: SF-295 CNS
[21] = test system: OVCAR-8 ovarian
[22] = test system: HS 578T breast
[23] = test system: A498 renal
[24] = test system: T-47D breast
[25] = test system: NCI-H460 lung
[26] = test system: OVCAR-4 ovarian
[27] = test system: ACHN renal
[28] = test system: HCT-116 colon
[29] = test system: CCRF-CEM leukemia
[30] = test system: TK-10 renal
[31] = test system: SF-539 CNS
[32] = test system: SK-MEL-5 melanoma
[33] = test system: SN12C renal
[34] = test system: HCT-15 colon
[35] = test system: UO-31 renal
[36] = test system: 786-0 renal
[37] = test system: NCI/ADR-RES ovarian
[38] = test system: SW-620 colon
[39] = test system: EKVX NSCLC
[40] = test system: MOLT-4 leukemia
[41] = test system: MDA-MB-435
[42] = test system: HL-60(TB) leukemia
[43] = test system: M14 melanoma
[44] = test system: MDA-N
[45] = test system: KM12 colon
[46] = test system: CAKI-1 renal
[47] = test system: OVCAR-5 ovarian
[48] = test system: HOP-92 NSCLC
[49] = test system: SNB-75 CNS
[50] = test system: U251 CNS
[51] = test system: PC-3 prostate
[52] = test system: SK-MEL-28 melanoma
[53] = test system: SNB-19 CNS
[54] = test system: HOP-62 NSCLC
[55] = test system: SF-268 CNS
[56] = test system: IGROV1 ovarian
[57] = test system: UACC-257 melanoma
[58] = test system: HCC-2998 colon

COC(=O)Nc1nc2ccc(NS(=O)(=O)c3cccs3)cc2[nH]1
70.4 µM: TGI [9] | TGI [48]
54.7 µM: TGI [2]
47.5 µM: TGI [28]
73.7 µM: TGI [39]
91.7 µM: TGI [23]
90.6 µM: TGI [14]
39.7 µM: TGI [56]
29.9 µM: TGI [18]
89.5 µM: TGI [45]
70.9 µM: TGI [20]
16.8 µM: TGI [44]
> 100 µM: TGI [1] | TGI [3] | TGI [5] | TGI [6] | TGI [7] | TGI [8] | TGI [10] | TGI [12] | TGI [13] | TGI [15] | TGI [16] | TGI [17] | TGI [19] | TGI [21] | TGI [25] | TGI [26] | TGI [27] | TGI [29] | TGI [31] | TGI [32] | TGI [33] | TGI [34] | TGI [35] | TGI [36] | TGI [38] | TGI [46] | TGI [47] | TGI [50] | TGI [51] | TGI [52] | TGI [53] | TGI [55]
55.5 µM: TGI [42]
67.8 µM: TGI [49]
36.4 µM: TGI [22]
21.4 µM: TGI [41]
85.8 µM: TGI [11]
82.4 µM: TGI [54]
85.3 µM: TGI [24] | TGI [37]
77.4 µM: TGI [40]
49.2 µM: TGI [4]
68 µM: TGI [30]
76 µM: TGI [43]

O=c1cc(-c2ccc(F)cc2)[nH]c2ncccc12
34.1 µM: TGI [42]
inactive: GI50 [4] 45.5 µM | GI50 [20] 50 µM | GI50 [25] 34.7 µM | GI50 [28] 42.9 µM | GI50 [32] 30.3 µM | GI50 [36] 44.3 µM | GI50 [41] 12 µM | GI50 [42] 12.9 µM | GI50 [44] 14.1 µM | GI50 [50] 48.2 µM | GI50 [51] 46.1 µM
33 µM: TGI [41]
> 100 µM: TGI [1] | TGI [2] | TGI [3] | TGI [4] | TGI [5] | TGI [6] | TGI [7] | TGI [8] | TGI [9] | TGI [10] | TGI [12] | TGI [13] | TGI [14] | TGI [15] | TGI [16] | TGI [18] | TGI [19] | TGI [20] | TGI [21] | TGI [22] | TGI [23] | TGI [24] | TGI [25] | TGI [26] | TGI [27] | TGI [28] | TGI [29] | TGI [30] | TGI [31] | TGI [32] | TGI [33] | TGI [34] | TGI [35] | TGI [36] | TGI [37] | TGI [38] | TGI [39] | TGI [40] | TGI [57] | TGI [43] | TGI [45] | TGI [46] | TGI [47] | TGI [48] | TGI [50] | TGI [51] | TGI [52] | TGI [53] | TGI [54] | TGI [58] | TGI [55] | TGI [56]
60.3 µM: TGI [17]
81.1 µM: TGI [49]
35.9 µM: TGI [44]
